Experimental data taken from PubChem BioAssay AID192 (DTP/NCI, 2004).
Values joined by “and” are separate entries in the source; they are usually repeats but may differ in a detail not shown here. Equal values may be shown once. Inconclusive results and toxic doses are left out.

Tested on: BDF1 mice, B16 melanoma ip, median survival T/C
Assay: NCI In Vivo Anticancer Drug Screen. Data for tumor model B16 Melanoma (intraperitoneal) in B6D2F1 (BDF1) mice
Conditions: endpoint: median survival time, higher = longer survival
Summary of the method: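 Transplantable tumor model; survival or tumor size measured; reported as T/C, treated over vehicle control.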

[1] = dose: 0.12 mg/kg/injection, schedule: Q01DX009 (ip), vehicle: saline
[2] = dose: 0.25 mg/kg/injection, schedule: Q01DX009 (ip), vehicle: saline
[3] = dose: 0.5 mg/kg/injection, schedule: Q01DX009 (ip), vehicle: saline
[4] = dose: 50.0 mg/kg/injection, schedule: Q01DX009 (ip), vehicle: Klucel (hydroxypropylcellulose) (HPC)
[5] = dose: 100.0 mg/kg/injection, schedule: Q01DX009 (ip), vehicle: Klucel (hydroxypropylcellulose) (HPC)
[6] = dose: 200.0 mg/kg/injection, schedule: Q01DX009 (ip), vehicle: Klucel (hydroxypropylcellulose) (HPC)
[7] = dose: 400.0 mg/kg/injection, schedule: Q01DX009 (ip), vehicle: Klucel (hydroxypropylcellulose) (HPC)
[8] = dose: 100.0 mg/kg/injection, schedule: Q04DX003 (ip), vehicle: Klucel (hydroxypropylcellulose) (HPC)
[9] = dose: 6.25 mg/kg/injection, schedule: Q01DX009 (ip), vehicle: Klucel (hydroxypropylcellulose) (HPC)
[10] = dose: 25.0 mg/kg/injection, schedule: Q04DX003 (ip), vehicle: Klucel (hydroxypropylcellulose) (HPC)
[11] = dose: 50.0 mg/kg/injection, schedule: Q04DX003 (ip), vehicle: Klucel (hydroxypropylcellulose) (HPC)
[12] = dose: 6.25 mg/kg/injection, schedule: Q01DX009 (ip), vehicle: saline with Tween-80
[13] = dose: 12.5 mg/kg/injection, schedule: Q01DX009 (ip), vehicle: saline with Tween-80

For `[N-]=[N+]=CC(=O)CCC(N)C(=O)O` (centres undefined), the T/C (dose: 0.03 mg/kg/injection, schedule: Q01DX009 (ip), vehicle: saline with Tween-80) was 95 % of control, the T/C (dose: 0.05 mg/kg/injection, schedule: Q01DX009 (ip), vehicle: saline) was 115 % of control and the T/C (dose: 0.06 mg/kg/injection, schedule: Q01DX009 (ip), vehicle: saline with Tween-80) was 91 % of control. The T/C (dose: 0.1 mg/kg/injection, schedule: Q01DX009 (ip), vehicle: saline) was 104 % of control, the T/C (dose: 0.12 mg/kg/injection, schedule: Q01DX009 (ip), vehicle: saline with Tween-80) was 95 % of control and the T/C (dose: 0.13 mg/kg/injection, schedule: Q01DX009 (ip), vehicle: saline) was 102 % of control. The T/C (dose: 6.2 micrograms/kg/injection, schedule: Q01DX009 (ip), vehicle: saline) was 91 % of control, the T/C (dose: 12.5 micrograms/kg/injection, schedule: Q01DX009 (ip), vehicle: saline) was 92 % of control and the T/C (dose: 25.0 micrograms/kg/injection, schedule: Q01DX009 (ip), vehicle: saline) was 109 % of control.

In the case of `CCCCCCCCCCCCCCCC(=O)O[C@@]12C[C@@H](C)[C@@]3(O)[C@@H](C=C(CO)C[C@]4(O)C(=O)C(C)=C[C@@H]34)[C@@H]1C2(C)C`, the T/C (dose: 0.03 mg/kg/injection, schedule: Q01DX009 (ip), vehicle: saline + Tween-80 + alcohol) is reported as 103 % of control, the T/C (dose: 0.03 mg/kg/injection, schedule: Q01DX009 (ip), vehicle: saline) is reported as 94 % of control and the T/C (dose: 0.06 mg/kg/injection, schedule: Q01DX009 (ip), vehicle: saline + Tween-80 + alcohol) is reported as 109 % of control. The T/C (dose: 0.06 mg/kg/injection, schedule: Q01DX009 (ip), vehicle: saline) was 99 % of control, the T/C [1] was 96 % of control and the T/C (dose: 0.13 mg/kg/injection, schedule: Q01DX009 (ip), vehicle: other) was 103 % of control. For the same compound, the T/C (dose: 0.13 mg/kg/injection, schedule: Q01DX009 (ip), vehicle: saline + Tween-80 + alcohol) was 110 % of control, the T/C [2] was 92 % of control and the T/C [3] was 92 % of control.

In the case of `Cc1ccc2oc(-c3ccccc3)c(O)c(=O)c2c1`, the T/C (dose: 100.0 mg/kg/injection, schedule: Q01DX009 (ip), vehicle: saline) is reported as 106 % of control, the T/C (dose: 200.0 mg/kg/injection, schedule: Q01DX009 (ip), vehicle: saline) is reported as 108 % of control and the T/C (dose: 400.0 mg/kg/injection, schedule: Q01DX009 (ip), vehicle: saline) is reported as 104 % of control.

`O=NN(CCCl)C(=O)Nc1c[nH]c2ccccc12` was tested, and the T/C (dose: 25.0 mg/kg/injection, schedule: Q01DX009 (ip), vehicle: Klucel (hydroxypropylcellulose) (HPC)) was 153 % of control and 158 % of control, the T/C [4] was 157 % of control and 158 % of control and 165 % of control and the T/C [5] was 162 % of control and 174 % of control. For the same compound, the T/C [6] was 174 % of control.

In the case of `O=NNc1ccc(Cl)cn1`, the T/C (dose: 1.5 mg/kg/injection, schedule: Q01DX009 (ip), vehicle: water) is reported as 104 % of control, the T/C (dose: 3.0 mg/kg/injection, schedule: Q01DX009 (ip), vehicle: water) is reported as 118 % of control and the T/C (dose: 24.0 mg/kg/injection, schedule: Q01DX009 (ip), vehicle: water) is reported as 161 % of control.

With `CCOc1ccc(C(C)c2cc3c(cc2OC)OCO3)cc1` (centres undefined) the T/C (dose: 12.5 mg/kg/injection, schedule: Q01DX009 (ip), vehicle: distilled water + Tween-80) was 114 % of control and the T/C (dose: 25.0 mg/kg/injection, schedule: Q01DX009 (ip), vehicle: distilled water + Tween-80) was 113 % of control.

With `COc1ccc(N=Cc2ccc(C=Nc3ccc(OC)cc3)cc2)cc1` the T/C [4] was 92 % of control and 94 % of control, the T/C [5] was 96 % of control and the T/C [6] was 88 % of control and 93 % of control.

`Nc1n[nH]c(C(=O)O)n1` was tested, and the T/C [5] was 97 % of control, the T/C [6] was 97 % of control and the T/C [7] was 97 % of control.

`CC(C)(C)OC(=O)C(CC(=O)O)NC(=O)OCc1ccccc1` (centres undefined) (tested in a mixture with another compound) was tested, and the T/C (dose: 15.0 mg/kg/injection, schedule: Q01DX009 (ip), vehicle: saline) was 107 % of control, the T/C (dose: 30.0 mg/kg/injection, schedule: Q01DX009 (ip), vehicle: saline) was 102 % of control and the T/C (dose: 60.0 mg/kg/injection, schedule: Q01DX009 (ip), vehicle: saline) was 108 % of control.

For `COC(=O)C1CCC(C(=O)O)CC1` (centres undefined), the T/C [8] was 100 % of control and the T/C (dose: 200.0 mg/kg/injection, schedule: Q04DX003 (ip), vehicle: Klucel (hydroxypropylcellulose) (HPC)) was 100 % of control.

`COC(CCCl)c1ccc(Cl)cc1` (centres undefined) was tested, and the T/C (dose: 50.0 mg/kg/injection, schedule: Q01DX009 (ip), vehicle: saline with Tween-80) was 102 % of control, the T/C (dose: 100.0 mg/kg/injection, schedule: Q01DX009 (ip), vehicle: saline with Tween-80) was 97 % of control and the T/C (dose: 200.0 mg/kg/injection, schedule: Q01DX009 (ip), vehicle: saline with Tween-80) was 87 % of control.

With `COc1ccc(/C=C/c2cnc3ccccc3n2)cc1OC` the T/C (dose: 75.0 mg/kg/injection, schedule: Q01DX009 (ip), vehicle: Klucel (hydroxypropylcellulose) (HPC)) was 100 % of control, the T/C (dose: 150.0 mg/kg/injection, schedule: Q01DX009 (ip), vehicle: Klucel (hydroxypropylcellulose) (HPC)) was 100 % of control and the T/C (dose: 300.0 mg/kg/injection, schedule: Q01DX009 (ip), vehicle: Klucel (hydroxypropylcellulose) (HPC)) was 92 % of control.

With `Nc1nc(F)nc2nc[nH]c12` the T/C (dose: 5.0 mg/kg/injection, schedule: Q01DX009 (ip), vehicle: Klucel (hydroxypropylcellulose) (HPC)) was 88 % of control and 109 % of control, the T/C (dose: 10.0 mg/kg/injection, schedule: Q01DX009 (ip), vehicle: Klucel (hydroxypropylcellulose) (HPC)) was 90 % of control and 118 % of control and the T/C (dose: 20.0 mg/kg/injection, schedule: Q01DX009 (ip), vehicle: Klucel (hydroxypropylcellulose) (HPC)) was 95 % of control and 122 % of control.

`CC1(C)N=C(N)N=C(N)N1c1ccc(Cl)c(Cl)c1` was tested, and the T/C [9] was 117 % of control, the T/C (dose: 6.25 mg/kg/injection, schedule: Q04DX003 (ip), vehicle: Klucel (hydroxypropylcellulose) (HPC)) was 102 % of control and the T/C (dose: 12.5 mg/kg/injection, schedule: Q04DX003 (ip), vehicle: Klucel (hydroxypropylcellulose) (HPC)) was 103 % of control. For the same compound, the T/C [10] was 114 % of control and the T/C [11] was 116 % of control.

`O=S(=O)([O-])NC1CCCCC1.O=S(=O)([O-])NC1CCCCC1.[Hg+2].[Hg+2].[Hg+2].[O-2].[O-2]` was tested, and the T/C [1] was 98 % of control, the T/C [2] was 105 % of control and the T/C [3] was 98 % of control. For the same compound, the T/C (dose: 1.0 mg/kg/injection, schedule: Q01DX009 (ip), vehicle: saline) was 90 % of control.

For `Nc1ccc(OCc2ccc(S(=O)(=O)F)c(Cl)c2)c(Cl)c1`, the T/C [5] was 110 % of control and the T/C [6] was 110 % of control.

With `c1ccc(C(=C2CCC2)c2c3ccccc3cc3ccccc23)cc1` the T/C [10] was 102 % of control, the T/C [11] was 91 % of control and the T/C [8] was 105 % of control.

With `COc1ccc2nc3ccccc3c(NCCNCCO)c2c1` the T/C (dose: 10.0 mg/kg/injection, schedule: Q01DX009 (ip), vehicle: saline) was 123 % of control.

In the case of `Cc1ccc(S(=O)(=O)N/N=C/C(=O)O)cc1`, the T/C (dose: 0.78 mg/kg/injection, schedule: Q01DX009 (ip), vehicle: saline with Tween-80) is reported as 108 % of control, the T/C (dose: 1.56 mg/kg/injection, schedule: Q01DX009 (ip), vehicle: saline with Tween-80) is reported as 110 % of control and the T/C (dose: 3.12 mg/kg/injection, schedule: Q01DX009 (ip), vehicle: saline with Tween-80) is reported as 104 % of control. For the same compound, the T/C [9] was 103 % of control and 111 % of control, the T/C [12] was 104 % of control and 112 % of control and the T/C (dose: 12.5 mg/kg/injection, schedule: Q01DX009 (ip), vehicle: Klucel (hydroxypropylcellulose) (HPC)) was 121 % of control. For the same compound, the T/C [13] was 111 % of control, the T/C (dose: 15.0 mg/kg/injection, schedule: Q01DX009 (ip), vehicle: saline with Tween-80) was 112 % of control and the T/C (dose: 17.5 mg/kg/injection, schedule: Q01DX009 (ip), vehicle: Klucel (hydroxypropylcellulose) (HPC)) was 118 % of control. For the same compound, the T/C (dose: 23.0 mg/kg/injection, schedule: Q01DX009 (ip), vehicle: saline with Tween-80) was 103 % of control, the T/C (dose: 53.0 mg/kg/injection, schedule: Q01DX009 (ip), vehicle: saline with Tween-80) was 100 % of control and the T/C (dose: 70.0 mg/kg/injection, schedule: Q01DX009 (ip), vehicle: Klucel (hydroxypropylcellulose) (HPC)) was 151 % of control. For the same compound, the T/C (dose: 70.0 mg/kg/injection, schedule: Q01DX009 (ip), vehicle: saline with Tween-80) was 115 % of control.

For `Clc1ccc(C=Nc2ccc3c(c2)Cc2ccccc2-3)cc1`, the T/C [5] was 93 % of control, the T/C [6] was 93 % of control and the T/C [7] was 96 % of control.

With `Cc1cccc(OCC(=O)O)c1` the T/C [12] was 106 % of control, the T/C [13] was 93 % of control and the T/C (dose: 25.0 mg/kg/injection, schedule: Q01DX009 (ip), vehicle: saline with Tween-80) was 86 % of control.
